According to PubChem BioAssay (NCI):
“And” between values parts separate entries of the source, which are not always exact repeats. Equal entries are not always repeated.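 How tested: cells in 96-well plates exposed to compound for 48 hours at five concentrations. GI50 marks 50% less growth. TGI denotes the concentration required for complete inhibition of growth.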 *1 amine or outer side, *2 acyl side, *3 side chain or, on linkers, in order; H or OH if unused. Where a SMILES comes first, the peptide text is derived from it. Bridges are numbered along the chain shown (N, C = ends). Roman numbers before positions name the chains, in order. [ ]: non-standard residue; d: D form. Actinocin(9to1) = Cc1c2oc3c(C)ccc(C(=O)[*:1])c3nc-2c(C(=O)[*:2])c(N)c1=O; Hyp = O=C(O)[CH]1C[CH](O)CN1; NMeV = CN[CH](C(=O)O)C(C)C; Sar = CNCC(=O)O

Legend:
Test in all cases: inhibition of tumour cell growth, NCI panel, 48 h
SW-620 colon = test system: SW-620 colon
NCI/ADR-RES ovarian = test system: NCI/ADR-RES ovarian
MDA-MB-231 breast = test system: MDA-MB-231 breast
SNB-19 CNS = test system: SNB-19 CNS
HOP-92 NSCLC = test system: HOP-92 NSCLC
NCI-H23 lung = test system: NCI-H23 lung
SK-MEL-5 melanoma = test system: SK-MEL-5 melanoma
MCF7 breast = test system: MCF7 breast
OVCAR-8 ovarian = test system: OVCAR-8 ovarian
SNB-75 CNS = test system: SNB-75 CNS
SK-MEL-2 melanoma = test system: SK-MEL-2 melanoma
CAKI-1 renal = test system: CAKI-1 renal
SK-OV-3 ovarian = test system: SK-OV-3 ovarian
BT-549 breast = test system: BT-549 breast

Compound	TGI (SW-620 colon)	TGI (NCI/ADR-RES ovarian)	TGI (MDA-MB-231 breast)	TGI (SNB-19 CNS)	TGI (HOP-92 NSCLC)	TGI (NCI-H23 lung)	TGI (SK-MEL-5 melanoma)	TGI (MCF7 breast)	TGI (OVCAR-8 ovarian)	TGI (SNB-75 CNS)	TGI (SK-MEL-2 melanoma)	TGI (CAKI-1 renal)	TGI (SK-OV-3 ovarian)	TGI (BT-549 breast)	GI50 (MDA-MB-231 breast)	GI50 (SNB-19 CNS)	GI50 (NCI-H23 lung)	GI50 (SNB-75 CNS)	GI50 (SK-MEL-2 melanoma)	GI50 (SK-OV-3 ovarian)
C=CCOC(OCC=C)/C(Br)=C/C	> 100 µM	89.2 µM	> 100 µM	> 100 µM	> 100 µM	> 100 µM	> 100 µM	> 100 µM	37 µM	> 100 µM	> 100 µM	> 100 µM	> 100 µM	–	–	–	–	–	–	–
Cc1c2oc3c(C)ccc(C(=O)NC4C(=O)NC(C(C)C)C(=O)N5CC(O)CC5C(=O)N(C)CC(=O)N(C)C(C(C)C)C(=O)OC4C)c3nc-2c(C(=O)NC2C(=O)NC(C(C)C)C(=O)N3CC(O)CC3C(=O)N(C)CC(=O)N(C)C(C(C)C)C(=O)OC2C)c(N)c1=O (centres undefined) (I: TV[Hyp][Sar][NMeV] / II: TV[Hyp][Sar][NMeV]; ester I:1-I:C, II:1-II:C; linker I:N-II:N via Actinocin(9to1); configuration not given here)	> 1 µM	> 1 µM	> 1 µM	> 1 µM	> 1 µM	> 1 µM	> 1 µM	> 1 µM	> 1 µM	> 1 µM	> 1 µM	> 1 µM	> 1 µM	–	–	–	–	–	–	–
Cc1cc2c(c(S(=O)(=O)c3ccccc3[N+](=O)[O-])c1)NCCC2	> 100 µM	> 100 µM	> 100 µM	> 100 µM	–	> 100 µM	> 100 µM	> 100 µM	> 100 µM	> 100 µM	> 100 µM	–	> 100 µM	> 100 µM	–	–	–	–	–	–
OC12c3ccccc3C1CCCCCCCCCC21OCCO1 (centres undefined)	> 100 µM	–	–	> 100 µM	–	> 100 µM	> 100 µM	–	> 100 µM	> 100 µM	> 100 µM	> 100 µM	> 100 µM	–	–	–	–	–	–	–
Cc1ccc(S(=O)(=O)C2=c3nc4ccccc4cc3=C3C(=O)c4ccccc4C(=O)C32)cc1 (centres undefined)	> 100 µM	–	–	> 100 µM	> 100 µM	> 100 µM	> 100 µM	–	> 100 µM	> 100 µM	> 100 µM	> 100 µM	> 100 µM	–	–	–	–	–	–	–
O=C(c1cccs1)N1CCCN(C(=O)c2cccs2)C1=S	> 100 µM	> 100 µM	> 100 µM	> 100 µM	–	> 100 µM	> 100 µM	> 100 µM	> 100 µM	–	> 100 µM	> 100 µM	> 100 µM	> 100 µM	–	–	–	–	–	–
C/C=C(\C)C(=O)O[C@@H]1CC(C)(C)CC2C3=CCC4[C@]56CC[C@](O)(OC5)C(C)(C)C6CC[C@@]4(C)C3(C)CC[C@]21C(=O)O (some centres undefined)	> 100 µM	> 100 µM	> 100 µM	> 100 µM	–	> 100 µM	> 100 µM	> 100 µM	> 100 µM	–	> 100 µM	> 100 µM	> 100 µM	> 100 µM	–	–	–	–	–	–
COc1cc(C2C3=C(CCCC3=O)N(c3ccc(C)cc3)C3=C2C(=O)CCC3)c([N+](=O)[O-])cc1OC	> 100 µM	> 100 µM	–	> 100 µM	> 100 µM	> 100 µM	> 100 µM	> 100 µM	–	> 100 µM	–	> 100 µM	> 100 µM	> 100 µM	–	–	–	–	–	–
COc1ccc2oc(-c3ccc(OC)c(OC)c3OC)cc(=O)c2c1	> 100 µM	–	–	> 100 µM	> 100 µM	> 100 µM	–	–	–	> 100 µM	> 100 µM	> 100 µM	> 100 µM	–	–	–	–	–	–	–
Cc1cc2n[n+]3[n-]cc(-c4ccccc4)n3c2cc1[N+](=O)[O-]	> 100 µM	–	> 100 µM	> 100 µM	> 100 µM	–	> 100 µM	> 100 µM	–	> 100 µM	> 100 µM	> 100 µM	> 100 µM	> 100 µM	–	–	–	–	–	–
O=c1[nH]c2nccn2c2c1SCCN2	> 100 µM	> 100 µM	–	> 100 µM	–	> 100 µM	> 100 µM	> 100 µM	> 100 µM	> 100 µM	> 100 µM	> 100 µM	–	> 100 µM	–	–	–	–	–	–
c1ccc(SC23C4C5C6C4C2C6C53)nc1 (centres undefined)	> 100 µM	–	–	> 100 µM	> 100 µM	> 100 µM	> 100 µM	–	> 100 µM	> 100 µM	> 100 µM	> 100 µM	> 100 µM	–	–	–	–	–	–	–
CCn1c2c(c3ccccc31)[C@@H](c1ccc(Cl)cc1)CC1C(=O)N(c3ccccc3)C(=O)C21 (some centres undefined)	> 100 µM	–	–	> 100 µM	90.5 µM	> 100 µM	> 100 µM	–	> 100 µM	> 100 µM	> 100 µM	> 100 µM	> 100 µM	–	–	–	–	–	–	–
COC(=O)c1c2c(cc3c1CC1(Cc4cc5c(c(C(C)=O)c4C1)CCCC5)C3)CCCC2 (centres undefined)	–	> 100 µM	> 100 µM	–	> 100 µM	> 100 µM	> 100 µM	> 100 µM	> 100 µM	–	44.5 µM	–	> 100 µM	–	–	–	–	–	–	–
O=[N+]([O-])/C=C(\CS(=O)(=O)c1ccccc1)c1ccc2c(c1)OCO2	> 100 µM	49.2 µM	64.1 µM	–	> 100 µM	36.3 µM	> 100 µM	> 100 µM	> 100 µM	> 100 µM	–	93.5 µM	> 100 µM	–	–	–	–	–	–	–
C=CCOC(=O)N1c2ccc(O)cc2[C@@]23O[C@@]24[C@@H]1C#C/C=C\C#C[C@]3(O)C(OC)(OC)C[C@@H]4C	> 100 µM	> 100 µM	52.8 µM	> 100 µM	77.9 µM	93 µM	27.4 µM	98.2 µM	85.5 µM	45.9 µM	58.3 µM	> 100 µM	> 100 µM	–	–	–	–	–	–	–
C#C[C@@]1(O)CCCC2=CC3(CC[C@]21C)SCCS3	> 100 µM	> 100 µM	> 100 µM	> 100 µM	> 100 µM	> 100 µM	> 100 µM	> 100 µM	> 100 µM	–	> 100 µM	–	> 100 µM	–	–	–	–	–	–	–
COC(=O)CCNc1c2ccccc2nc2cccc([N+](=O)[O-])c12	–	0.068 µM	1.44 µM	0.217 µM and 0.0495 µM	–	–	–	0.277 µM	–	0.0722 µM	0.00284 µM	–	0.405 µM and 0.18 µM	–	0.394 µM	0.00416 µM	1.26 µM	0.0185 µM	0.00104 µM	0.0405 µM
